Test results from patent publication US9549912B2, “Methods for treating atrial fibrillation” (Armetheon, Inc., priority 2009, dated 2017).
Where “and” joins values, the source holds several entries; their conditions need not be identical. Equal entries are not always repeated. Entries after “also recorded” stand apart in the source; their conditions may differ.

How the values were obtained:
[1] = Safety, ECG and thyroid function (Example 1); assay type: in vivo, human
Experimental: Patients were then monitored for at least 3 h continuously post-dose; this included telemetry, vital signs, and oxygen saturations. Electrocardiograms were taken, and the pacemaker data were downloaded prior to drug administration on day 8 and day 14 of each study period.
Criteria for drug discontinuation included a fall in systolic blood pressure (BP) to <90 mmHg systolic, an increase in BP>200 mmHg, intolerable side-effects, a change in rhythm that in the opinion of the investigator constituted a risk to safety, or a QRS increase >50%. Where possible, ECGs of intrinsic rhythm rather than ventricular-paced rhythm were obtained, as paced complexes can be difficult to interpret for QT prolongation. An increase in QT interval >470 ms for intrinsic and >550 ms for paced beats or an increase of 30% was considered significant.
Electrocardiogram parameters (ventricular HR, PR, QRS, QT, QTc interval) were summarized by baseline, dosing period, and washout using descriptive statistics. Changes from baseline in ECG values at day 8 of dosing and day 14 of washout were also summarized. Baseline values of ECG parameters are defined as the mean of three values recorded prior to the first dose of ATI-2042.

[2] = target: cytochrome P450 2C9 (CYP2C9) (Homo sapiens, UniProt P11712); assay: CYP2C9 inhibition; assay type: in vitro ADME
Sequence of cytochrome P450 2C9 (CYP2C9) (P11712 whole entry): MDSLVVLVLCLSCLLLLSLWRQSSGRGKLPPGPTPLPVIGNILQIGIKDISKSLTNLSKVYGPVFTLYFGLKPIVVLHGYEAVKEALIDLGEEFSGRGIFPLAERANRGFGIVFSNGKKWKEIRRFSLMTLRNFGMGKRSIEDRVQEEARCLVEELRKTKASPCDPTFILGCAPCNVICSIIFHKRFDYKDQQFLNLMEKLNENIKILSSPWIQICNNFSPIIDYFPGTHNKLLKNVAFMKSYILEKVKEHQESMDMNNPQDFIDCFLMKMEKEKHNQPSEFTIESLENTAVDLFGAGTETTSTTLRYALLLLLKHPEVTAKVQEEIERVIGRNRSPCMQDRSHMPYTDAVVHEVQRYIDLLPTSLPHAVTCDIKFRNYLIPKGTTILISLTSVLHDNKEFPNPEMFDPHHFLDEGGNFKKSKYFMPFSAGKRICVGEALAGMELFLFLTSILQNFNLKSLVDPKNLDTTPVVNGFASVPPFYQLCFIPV

[3] = test system: patients with paroxysmal atrial fibrillation (PAF); assay: Randomized, double-blind, placebo-controlled study of budiodarone in PAF patients with pacemakers: AT/AF burden, episodes, NSR, GCI (Example 2); assay type: in vivo, human
Excerpt: The objective of the study is to determine the efficacy of budiodarone in reducing atrial tachyarrhythmia (AT/AF) burden in patients with paroxysmal atrial fibrillation (PAF) compared to placebo, for 12 weeks of treatment, and the safety and tolerability of budiodarone for up to 12 weeks of treatment.
Secondary: to study the effect of budiodarone versus placebo on the number and duration of AT/AF episodes, duration of normal sinus rhythm (NSR) between episodes of AT/AF and on symptoms associated with PAF.
Example 2 describes a multicenter, multinational, randomized, double-blind, placebo-controlled, parallel-group study of the efficacy and safety of budiodarone in patients with PAF. Planned enrollment was up to 140 patients (with eventually 110 enrolled) with proven PAF who had permanently implanted pacemakers with appropriate AT/AF diagnostic and recording capabilities. Potential study participants underwent screening assessments, including the optimization of pacemaker programming for accurate AT/AF detection. Within 30 days after screening assessments began, eligible patients entered a 4-week baseline period (Period 1) when baseline atrial fibrillation burden (AFB) was established followed by randomization to one of three active treatment regimens or placebo for a 12-week treatment period (Period 2), followed by a 4-week washout period (Period 3). During the treatment period, patients received twice-daily (BID) oral doses of 200 mg ATI-2042, 400 mg ATI-2042, 600 mg ATI-2042, or placebo. No study drug was given during the baseline and washout periods.
To be randomized, study participant must have had: an AT/AF burden between 5% and 70% during the baseline period; no evidence of persistent AF (i.e., 7 or more consecutive days of AT/AF with episodes lasting >23 hours); able to have pacemaker atrial antitachyarrhythmia treatment algorithms turned off for the remaining duration of the study.
Efficacy outcome measures were AT/AF burden (total time spent in AT/AF as a percentage of total observation time), number and mean duration of AT/AF episodes, mean duration of NSR, patient global clinical impression (GCI) questionnaire, and University of Toronto Atrial Fibrillation Severity Scale (AFSS).
Statistical methods for efficacy: The primary efficacy analysis was the percent change in the AT/AF burden from baseline to the 12-week treatment period. Pairwise comparisons between each ATI-2042 dose group and the placebo group were performed using the Wilcoxon rank sum test. The primary analysis was based on the mITT population.
For all variables based on the pacemaker data, the Wilcoxon rank sum test was used to compare each ATI-2042 dose group to the placebo group. The Jonckheere-Terpstra test was used to test for a dose response. The Wilcoxon signed rank test was used to test for a significant change from baseline within each treatment group. An analysis of covariance (ANCOVA) was used to compare the percent change from baseline in AT/AF burden among the treatment groups after adjusting for the baseline AT/AF burden. The ANCOVA model contained effects for treatment group and baseline AT/AF burden.
For patient […], the Cochran-Mantel-Haenszel test was used to compare each ATI-2042 dose group to the placebo group. The Jonckheere-Terpstra test was used to test for a dose response.

[4] = Safety and tolerability (Example 2); assay type: in vivo, human
Excerpt: Safety: treatment-emergent adverse event (TEAE) type, severity, and incidence; clinical laboratory assessments, including thyroid function and testicular function (males); coagulation tests; vital signs; physical examinations; ECGs; eye examinations; chest X-rays; and pulmonary function tests.
Statistical methods for safety: Adverse events (AEs) were summarized by system organ class and preferred term. Laboratory parameters and vital signs were summarized by descriptive statistics and shift tables were also created for laboratory parameters. The percent of patients with physical examination findings that changed over the study, with ECG abnormalities by visit, and with corneal deposits were summarized. Chest X-rays and pulmonary function test results were provided in listings.

[5] = Electrophysiological activity in animals: atrial refractoriness, metabolite activity; assay type: in vivo; settings: animals
[6] = 600 mg BID, Treatment Months 1-3, ITT
[7] = 600 mg BID, Treatment Months 1-3, mITT

Question: Which “PR interval reduction from baseline” value ([1]; 200 mg bid) does the source give for “(S)-sec-butyl 2-(3-(4-(2-(diethylamino)ethoxy)-3,5-diiodobenzoyl)benzofuran-2-yl)acetate [ATI-2042]” here?
Answer: 16.6+23.9%

Question: And the “PR interval reduction from baseline” value ([1]; 400 mg bid)?
Answer: 11.4+22.6%

Question: What about the “change in QTc from baseline, one patient” value ([1]; 400 mg bid, patient with AV node ablation, permanently paced) of the same substance?
Answer: 30 to 60 ms

Question: What about the “change in paced QTc from baseline, one patient” value ([1]; 400 mg bid, same patient) of the same substance?
Answer: 15%

Question: And the “PR interval reduction from baseline” value ([1]; 600 mg bid)?
Answer: 27.0+32.1%

Question: And the “PR interval reduction from baseline” value ([1]; 800 mg bid)?
Answer: 35.1 ± 30.9%

Question: And the tolerability ([1]; 200-800 mg bid)?
Answer: generally well tolerated

Question: What about the “change from baseline QT or QTc with dosing” value ([1]; all patients, paced or not) of the same substance?
Answer: No patient exhibited >30% change

Question: What about the “changes in HR, QRS, QT, or QTc” value ([1]; between baseline and dosing or washout) of the same substance?
Answer: no significant changes

Question: What about the “proarrhythmia, clinical hypothyroidism, hyperthyroidism” value ([1]; in vivo) of the same substance?
Answer: no cases of proarrhythmia, clinical hypothyroidism, or hyperthyroidism

Question: And the “serious AEs” value ([1]; in vivo)?
Answer: no serious AEs related to study drug

Question: What about the “thyroid-stimulating hormone level reached after increase, individual patients” value ([1]; three patients, from 2.53, 3.51 and 0.68, normal range 0.27-4.2) of the same substance?
Answer: 4.82 mU/L and 9.49 mU/L and 16.12 mU/L

Question: What about the “PR interval reduction from baseline” value ([1]; washout) of the same substance?
Answer: 30.7 ± 24.3%

Question: And the CYP2C9 inhibition [2]?
Answer: inhibitor; also recorded: inhibit CYP2C9

Question: What about the “decrease in AFB” value ([3]; 200 mg BID, mITT population, not statistically significant) of the same substance?
Answer: 10%

Question: What about the “median percent reduction from baseline in AT/AF burden” value ([3]; 400 mg BID, Treatment Months 1-3, ITT population) of the same substance?
Answer: 54%

Question: What about the “median percent reduction from baseline in AT/AF burden” value ([3]; 400 mg BID, Treatment Months 1-3, mITT population) of the same substance?
Answer: 54%

Question: What about the “AF episodes lasting 24 hours (FIG. 6)” value ([3]; 400 mg dose cohort) of the same substance?
Answer: only a single 24 hour episode

Question: And the “patients with AF eradicated during the study period” value ([3]; 600 mg)?
Answer: More than half the patients had their AF eradicated

Question: What about the “reduction of number and duration of AF episodes below baseline (FIG. 3)” value ([3]; 600 mg) of the same substance?
Answer: about 70%

Question: What about the “median percent reduction in AT/AF burden” value ([3]; 600 mg BID, Treatment Month 3, ITT population) of the same substance?
Answer: 80%

Question: And the “median percent reduction in AT/AF burden” value ([3]; 600 mg BID, Treatment Month 3, mITT population)?
Answer: 83%

Question: And the “median percent change from baseline in duration of AT/AF episodes” value [3, 6]?
Answer: −51.3%

Question: And the “median percent change from baseline in number of AT/AF episodes” value [3, 6]?
Answer: −52.9%

Question: And the “median percent increase from baseline in duration of NSR” value [3, 6]?
Answer: 208.8%

Question: And the “median percent reduction from baseline in AT/AF burden” value ([3]; 600 mg BID, Treatment Months 1-3, ITT population)?
Answer: 74%

Question: What about the “median percent change from baseline in duration of AT/AF episodes” value [3, 7] of the same substance?
Answer: −51.3%

Question: And the “median percent change from baseline in number of AT/AF episodes” value [3, 7]?
Answer: −62.1%

Question: And the “median percent increase from baseline in duration of NSR” value [3, 7]?
Answer: 241.8%

Question: And the “median percent reduction from baseline in AT/AF burden” value ([3]; 600 mg BID, Treatment Months 1-3, mITT population)?
Answer: 75%

Question: And the “median percentage reduction in AFB” value ([3]; 600 mg BID, third month, paragraph refers to ITT population)?
Answer: 83%

Question: And the “AF episodes lasting 24 or more hours (FIG. 6)” value ([3]; 600 mg dose group)?
Answer: no patients experienced an AF episode lasting 24 or more hours

Question: And the “decrease in number of AT/AF episodes (median percent change from baseline, FIG. 3)” value ([3]; 600 mg, all three treatment months)?
Answer: more than 60%

Question: And the “median AF episode duration” value ([3]; 600 mg, month 3)?
Answer: 0

Question: What about the “decrease in duration of episodes (median percent change from baseline, FIG. 3)” value ([3]; 600 mg, treatment month 1) of the same substance?
Answer: more than 50%

Question: What about the “decrease in duration of episodes (median percent change from baseline, FIG. 3)” value ([3]; 600 mg, treatment month 2) of the same substance?
Answer: more than 70%

Question: What about the “decrease in duration of episodes (median percent change from baseline, FIG. 3)” value ([3]; 600 mg, treatment month 3) of the same substance?
Answer: ~70%

Question: What about the “mean episode duration (FIG. 4)” value ([3]; 600 mg, down from nearly 24) of the same substance?
Answer: less than 1 hour

Question: What about the “Patient GCI: patients a lot or completely satisfied with the test medication” value ([3]; ITT population, dose group not stated) of the same substance?
Answer: 60.0%

Question: And the “Patient GCI: patients reporting a lot of improvement or complete relief” value ([3]; dose group not stated, ITT and mITT both named)?
Answer: 46.7%

Question: What about the “AFB after one-month washout” value ([3]; each of the three dose groups) of the same substance?
Answer: returned to essentially the baseline values

Question: What about the tolerability ([4]; 200, 400, 600 mg BID, up to 12 weeks) of the same substance?
Answer: well tolerated

Question: And the creatinine ([4]; BUN unchanged)?
Answer: reversible elevation

Question: What about the ALT ([4]; appeared dose related) of the same substance?
Answer: mild, reversible increase

Question: What about the “corneal deposits (slit-lamp examination)” value ([4]; end of treatment period) of the same substance?
Answer: No patient treated with ATI-2042 developed corneal deposits

Question: What about the “SAEs possibly related to drug” value ([4]; hematuria and high INR) of the same substance?
Answer: Only one SAE was possibly related

Question: And the “amiodarone-like end-organ toxicity (pulmonary fibrosis, corneal deposits, neuropathy, photosensitivity)” value ([4]; in vivo)?
Answer: No evidence of amiodarone-like end-organ toxicity was seen

Question: And the thyroid function changes ([4]; in vivo)?
Answer: mild and reversible

Question: And the “most frequent TEAEs” value ([4]; patients on concomitant warfarin)?
Answer: changes in INR values

Question: And the “left and right atrial refractoriness” value [5]?
Answer: increased left and right atrial refractoriness comparable with amiodarone
